Measurements from US20080032229A1, “BOTTOM ANTIREFLECTIVE COATINGS” (priority 2003, published 2008).
Where two headings read alike, the source gives them in different places.

Key:
[1] = Solubility of bases in propylene glycol monomethyl ether acetate (shaken overnight, visual inspection); type: physicochemical; conditions: for Solubility, 0.2 wt. % in PGMEA: 0.2 wt. % solution in propylene glycol monomethyl ether acetate, shaken ~20 hours at room temperature; for Solubility, 0.2 wt. % in PGMEA / Solubility, 0.1 wt. % in PGMEA: visual inspection; for Solubility, 0.1 wt. % in PGMEA: diluted to 0.10 wt. % in propylene glycol monomethyl ether acetate; for Solubility in the solvent of the photoresist (propylene glycol monomethyl ether acetate): concentration not given
Description: Several bases were evaluated for solubility in propylene glycol monomethyl ether acetate, the most commonly used solvent in photoresist compositions. A 0.2 wt. % solution of each base was made with propylene glycol monomethyl ether acetate in glass vials. The vials were then placed on a shaker and allowed to shake overnight (˜20 hours) at room temperature. The vials were then visually inspected. If the vials were clear without any haze, cloudiness or solids or crystals at the bottom of the vial, then the base was considered soluble in propylene glycol monomethyl ether acetate. If the vials had haze, cloudiness or solids or crystals at the bottom of the vial, the base was considered not soluble in propylene glycol monomethyl ether acetate. For those vials which contained base at 0.2 wt. % and were considered not soluble, additional propylene glycol monomethyl ether acetate was added to dilute the solution to 0.15 wt. %, or 0.10 wt. %. The diluted vials were then evaluated as discussed above. No further dilutions were made beyond 0.10 wt. %.

[2] = Solubility of bases in the antireflective coating solvent 4-hydroxy-4-methyl-2-pentanone; type: physicochemical
Excerpt: For this experiment, base A is aminophylline, which is considered an insoluble base in the solvent of the photoresist (in this experiment, propylene glycol monomethyl ether acetate) but soluble in the solvent of the antireflective coating (in this experiment, 4-hydroxy-4-methyl-2-pentanone); base B is tridodecylamine, which is soluble in both the solvent of the photoresist (in this experiment, propylene glycol monomethyl ether acetate) and the solvent of the antireflective coating (in this experiment, 4-hydroxy-4-methyl-2-pentanone). The bases were evaluated alone or as mixtures in the antireflective coatings. The antireflective coatings were prepared using a co-polymer of benzyl methacrylate—mevalonic lactone methacrylate. The photoacid generator (PAG) was triphenylsulfonium nonaflate, and the aforementioned base(s) and 4-hydroxy-4-methyl-2-pentanone as the solvent completed the antireflective coating formulations. The PAG content was kept at 1.7 wt. % of total solids of the antireflective coating formulations and the antireflective coating formulations were 1.65% total solids.

Solubility, 0.2 wt. % in PGMEA [1]	Solubility, 0.1 wt. % in PGMEA [1]	Solubility in the solvent of the antireflective coating (4-hydroxy-4-methyl-2-pentanone) [2]	SMILES	Solubility in the solvent of the photoresist (propylene glycol monomethyl ether acetate) [1]	Solubility in the solvent of the antireflective coating (4-hydroxy-4-methyl-2-pentanone) ([2]; concentration not given)
Not soluble	Not soluble		Nc1nc(N)c2[nH]cnc2n1 [2,6-Diaminopurine]		
Not soluble	Soluble		CN(C)c1ncnc2nc[nH]c12 [6-(Dimethylamino)purine]		
Not soluble	Not soluble		Cn1c(=O)c2[nH]c(Cl)nc2n(C)c1=O [8-Chlorotheophyllline]		
Not soluble	Not soluble		Nc1ncnc2nc[nH]c12 [Adenine]		
Not soluble	Not soluble		Nc1nc2nc[nH]c2c(=O)[nH]1 [Guanine]		
Not soluble	Not soluble		c1ncc2[nH]cnc2n1 [Purine]		
		soluble	CCCCCCCCCCCCN(CCCCCCCCCCCC)CCCCCCCCCCCC [tridodecylamine, reference compound]	soluble	

SMILES	Solubility, 0.2 wt. % in PGMEA [1]	Solubility, 0.1 wt. % in PGMEA [1]	Solubility in the solvent of the antireflective coating (4-hydroxy-4-methyl-2-pentanone) [2]	Solubility in the solvent of the photoresist (propylene glycol monomethyl ether acetate) [1]	Solubility in the solvent of the antireflective coating (4-hydroxy-4-methyl-2-pentanone) ([2]; concentration not given)
Cn1c(=O)c2[nH]cnc2n(C)c1=O [Aminophylline, reference compound]	Not soluble	Not soluble		insoluble	soluble
Cn1c(=O)c2[nH]cnc2n(C)c1=O [Theophylline, reference compound]	Not soluble	Soluble			
